Columns and labels:
[1] = target: T1, recombinant human 17β-HSD1 (Homo sapiens, UniProt P14061); assay: Inhibition of recombinant human 17β-HSD1; format: biochemical; conditions: inhibitor at 1 μM; 30 nM estrone, 1 mM NADPH, 30 min at RT; read-out: 17β-HDS1 Inhibition % at 1 μM
T1 construct: made in house; host or cells: Sd9 (Sf9) insect cells, baculovirus (Bac to Bac Expression System)
T1 sequence (P14061 1-328): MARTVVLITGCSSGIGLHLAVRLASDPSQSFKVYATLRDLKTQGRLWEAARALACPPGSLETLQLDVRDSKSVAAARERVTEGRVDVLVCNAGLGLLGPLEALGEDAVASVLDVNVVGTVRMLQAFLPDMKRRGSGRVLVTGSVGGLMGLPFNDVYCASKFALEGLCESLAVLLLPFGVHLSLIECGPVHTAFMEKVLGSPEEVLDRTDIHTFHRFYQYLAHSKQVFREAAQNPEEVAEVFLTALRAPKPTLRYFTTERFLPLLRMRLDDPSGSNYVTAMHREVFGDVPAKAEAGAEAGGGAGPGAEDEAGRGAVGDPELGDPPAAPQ
Procedure: Recombinant baculovirus was generated by the “Bac to Bac Expression System” (Invitrogen). Recombinant bacmid was transfected to Sd9 insect cells using “Cellfectin Reagent” (Invitrogen). 60 h later cells were harvested; the microsomal fraction was isolated as described by Puranen, T. J., Poutanen, M. H., Peltoketo, H. E., Vihko, P. T. and Vihko, R. K. (1994) Site-directed mutagenesis of the putative active site of human 17 β-hydroxysteroid dehydrogenase type 1. Biochem. J. 304: 289-293. Aliquots were stored frozen until determination of enzymatic activity.
Recombinant protein (1 μg/ml) was incubated in 20 mM KH2PO4 pH 7.4 with 30 nM estrone (including 800 000 cpm/ml of ^3H-estrone) and 1 mM NADPH for 30 min at RT, in the presence of the potential inhibitor at concentrations 1 μM or 0.1 μM. Inhibitor stock solutions were prepared in DMSO. Final concentration of DMSO was adjusted to 1% in all samples. The enzyme reaction was stopped by addition of 10% trichloroacetic acid (final concentration). Samples were centrifuged in a microtiter plate at 4000 rpm for 10 min. Supernatants were applied to reverse phase HPLC on a Waters Symmetry C18 column, equipped with a Waters Sentry Guard column. Isocratic HPLC runs were performed at RT at a flow rate of 1 ml/min in acetonitrile:water 48:52 as running solvent. Radioactivity was monitored in the eluate by a Packard Flow Scintillation Analyzer. Total radioactivity for estrone and estradiol were determined in each sample and percent conversion of estrone to estradiol was calculated according to the following formula:
(§1) [formula] Percent inhibition was calculated flowingly: % inhibition=100−% conversion

[2] = target: T2, recombinant human 17β-HSD2 (Homo sapiens, UniProt P37059); assay: Inhibition of recombinant human 17β-HSD2; format: biochemical; conditions: inhibitor at 1 μM; 50 nM estradiol, 1 mM NADH, 30 min at RT; read-out: 17β-HSD2 Inhibition % at 1 μM
T2 construct: made in house; host or cells: Sd9 (Sf9) insect cells, baculovirus (Bac to Bac Expression System)
T2 sequence (P37059 1-387): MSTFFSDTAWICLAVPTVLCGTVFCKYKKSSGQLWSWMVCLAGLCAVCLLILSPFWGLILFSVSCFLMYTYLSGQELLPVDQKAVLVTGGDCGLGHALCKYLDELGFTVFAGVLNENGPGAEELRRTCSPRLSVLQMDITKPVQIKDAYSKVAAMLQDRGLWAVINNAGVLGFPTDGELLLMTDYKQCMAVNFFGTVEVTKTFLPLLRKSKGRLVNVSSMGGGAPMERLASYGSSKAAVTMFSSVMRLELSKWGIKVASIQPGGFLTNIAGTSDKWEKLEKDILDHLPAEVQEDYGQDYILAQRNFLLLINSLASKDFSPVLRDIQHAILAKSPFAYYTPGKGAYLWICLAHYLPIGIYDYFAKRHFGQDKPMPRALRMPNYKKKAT
Procedure: Similarly to 17β-HSD1 the Recombinant baculovirus was generated by the “Bac to Bac Expression System” (Invitrogen). Recombinant bacmid was transfected to Sd9 insect cells using “Cellfectin Reagent” (Invitrogen). 60 h later cells were harvested and supernatant were fractionated by the following protocol: • cells were dissolved into 40 ml of A-buffer (40 mM TRIS, pH8.0, 20% glycerol, 20 μM NAD, 0.4 mM PMSF, 150 mM NaCl, 0.5% dodecyl-β-maltoside+protease inhibitor cocktail) • cells were sonicated • lysate was incubated on ice for 15 min • lysate was centrifuged 5000 rpm 15 min, +4° C. • centrifugation of the supernatant 180 000 g 30 min, +4° C. • pellet was dissolved into 8 ml of A-buffer • not resuspended material was removed by centrifugation 5000 rpm 15 min, +4° C. • the clear supernatant was divided into 100 μl aliquots and were stored frozen until determination of enzymatic activity.
The amount of 17β-HSD2 was analysed by immunoblotting and total protein concentration of each extract batch was determined.
Recombinant protein (4 μg/ml) was incubated in 20 mM KH2PO4 pH 8.5 with 50 nM estradiol (including 800 000 cpm/ml of ^3H-estradiol) and 1 mM NADH for 30 min at RT, in the presence of the potential inhibitor at concentrations 1 μM or 0.1 μM. Inhibitor stock solutions were prepared in DMSO. Final concentration of DMSO was adjusted to 1% in all samples. The enzyme reaction was stopped by addition of 10% trichloroacetic acid (final concentration). Samples were centrifuged in a microtiter plate at 4000 rpm for 10 min. Supernatants were applied to reverse phase HPLC on a Waters Symmetry C18 column, equipped with a Waters Sentry Guard column. Isocratic HPLC runs were performed at RT at a flow rate of 1 ml/min in acetonitrile:water 48:52 as running solvent. Radioactivity was monitored in the eluate by a Packard Flow Scintillation Analyzer. Total radioactivity for estrone and estradiol were determined in each sample and percent conversion of estradiol to estrone was calculated according to the following formula:
as §1

SMILES | inhibition at 1 µM [1] [%] | inhibition at 1 µM [2] [%]
Cc1cnc(NC(=O)CC[C@@H]2CC(=O)[C@@]3(C)CCC4c5ccc(OS(C)(=O)=O)c(N)c5CCC4C23)s1 (stereo partly drawn) [Compound 40, (13S,15R)-4-amino-13-methyl-15-(3-((5-methylthiazol-2-yl)amino)-3-oxopropyl)-17-oxo-7,8,9,11,12,13,14,15,16,17-decahydro-6H-cyclopenta[a]phenanthren-3-yl methanesulfonate] | 75 | 1
Cc1cnc(NC(=O)CC[C@@H]2CC(=O)[C@@]3(C)CCC4c5cc(CN6CCOCC6)c(O)cc5CCC4C23)s1 (stereo partly drawn) [Compound 42, 3-((13S,15R)-3-hydroxy-13-methyl-2-(morpholinomethyl)-17-oxo-7,8,9,11,12,13,14,15,16,17-decahydro-6H-cyclopenta[a]phenanthren-15-yl)-N-(5-methylthiazol-2-yl)propanamide] | 90 | 0
Cc1cnc(NC(=O)CC[C@@H]2CC(=O)[C@@]3(C)CCC4c5cc(CN6CCOCC6)c(O)c([N+](=O)[O-])c5CCC4C23)s1 (stereo partly drawn) [Compound 43, 3-((13S,15R)-3-hydroxy-13-methyl-2-(morpholinomethyl)-4-nitro-17-oxo-7,8,9,11,12,13,14,15,16,17-decahydro-6H-cyclopenta[a]phenanthren-15-yl)-N-(5-methylthiazol-2-yl)propanamide] | 94 | 0
Cc1cnc(NC(=O)CC[C@@H]2CC(=O)[C@@]3(C)CCC4c5cc(CN(C)C)c(O)cc5CCC4C23)s1 (stereo partly drawn) [Compound 44, 3-((13S,15R)-2-((dimethylamino)methyl)-3-hydroxy-13-methyl-17-oxo-7,8,9,11,12,13,14,15,16,17-decahydro-6H-cyclopenta[a]phenanthren-15-yl)-N-(5-methylthiazol-2-yl)propanamide] | 91 | 2
Cc1cnc(NC(=O)CC[C@@H]2CC(=O)[C@@]3(C)CCC4c5cc(CN6CCCC6)c(O)cc5CCC4C23)s1 (stereo partly drawn) [Compound 45, 3-((13S,15R)-3-hydroxy-13-methyl-17-oxo-2-(pyrrolidin-1-ylmethyl)-7,8,9,11,12,13,14,15,16,17-decahydro-6H-cyclopenta[a]phenanthren-15-yl)-N-(5-methylthiazol-2-yl)propanamide] | 83 | 0
Cc1cnc(NC(=O)CC[C@@H]2CC(=O)[C@@]3(C)CCC4c5ccc6ocnc6c5CCC4C23)s1 (stereo partly drawn) [Compound 46, 3-((7aS,10R)-7a-methyl-8-oxo-6,7,7a,8,9,10,10a,10b,11,12-decahydro-5bH-cyclopenta[7,8]phenanthro[1,2-d]oxazol-10-yl)-N-(5-methylthiazol-2-yl)propanamide] | 87 | 3
Cc1nc2cc3c(cc2o1)CCC1C3CC[C@]2(C)C(=O)C[C@@H](CCC(=O)Nc3ncc(C)s3)C12 (stereo partly drawn) [Compound 48, 3-((3R,12aS)-8,12a-dimethyl-1-oxo-2,3,3a,3b,4,5,10b,11,12,12a-decahydro-1H-cyclopenta[7,8]phenanthro[3,2-d]oxazol-3-yl)-N-(5-methylthiazol-2-yl)propanamide] | 91 | 2
Cc1nc2c3c(ccc2o1)C1CC[C@]2(C)C(=O)C[C@@H](CCC(=O)Nc4ncc(C)s4)C2C1CC3 (stereo partly drawn) [Compound 49, 3-((7aS,10R)-2,7a-dimethyl-8-oxo-6,7,7a,8,9,10,10a,10b,11,12-decahydro-5bH-cyclopenta[7,8]phenanthro[1,2-d]oxazol-10-yl)-N-(5-methylthiazol-2-yl)propanamide] | 84 | 1
Cc1cnc(NC(=O)CC[C@@H]2CC(=O)[C@@]3(C)CCC4c5cc6[nH]c(=O)oc6cc5CCC4C23)s1 (stereo partly drawn) [Compound 50, 3-((3R,12aS)-12a-methyl-1,8-dioxo-2,3,3a,3b,4,5,8,9,10b,11,12,12a-dodecahydro-1H-cyclopenta[7,8]phenanthro[3,2-d]oxazol-3-yl)-N-(5-methylthiazol-2-yl)propanamide] | 91 | 40
Cc1cnc(NC(=O)CC[C@@H]2CC(=O)[C@@]3(C)CCC4c5ccc6oc(=O)[nH]c6c5CCC4C23)s1 (stereo partly drawn) [Compound 51, 3-((7aS,10R)-7a-methyl-2,8-dioxo-2,5b,6,7,7a,8,9,10,10a,10b,11,12-dodecahydro-1H-cyclopenta[7,8]phenanthro[1,2-d]oxazol-10-yl)-N-(5-methylthiazol-2-yl)propanamide] | 78 | 1
COc1cc2c(cc1I)C1CC[C@]3(C)C(=O)C[C@@H](CCC(=O)Nc4ncc(C)s4)C3C1CC2 (stereo partly drawn) [Compound 52, 3-((13S,15R)-2-iodo-3-methoxy-13-methyl-17-oxo-7,8,9,11,12,13,14,15,16,17-decahydro-6H-cyclopenta[a]phenanthren-15-yl)-N-(5-methylthiazol-2-yl)propanamide] | 93 | 1
Cc1cnc(NC(=O)CC[C@@H]2CC(=O)[C@@]3(C)CCC4c5cc(I)c(O)c(I)c5CCC4C23)s1 (stereo partly drawn) [Compound 53, 3-((13S,15R)-3-hydroxy-2,4-diiodo-13-methyl-17-oxo-7,8,9,11,12,13,14,15,16,17-decahydro-6H-cyclopenta[a]phenanthren-15-yl)-N-(5-methylthiazol-2-yl)propanamide] | 94 | 5
Cc1cnc(NC(=O)CC[C@@H]2CC(=O)[C@@]3(C)CCC4c5ccc(O)c(I)c5CCC4C23)s1 (stereo partly drawn) [Compound 54, 3-((13S,15R)-3-hydroxy-4-iodo-13-methyl-17-oxo-7,8,9,11,12,13,14,15,16,17-decahydro-6H-cyclopenta[a]phenanthren-15-yl)-N-(5-methylthiazol-2-yl)propanamide] | 86 | 4
Cc1cnc(NC(=O)CC[C@@H]2CC(=O)[C@@]3(C)CCC4c5cc(I)c(O)cc5CCC4C23)s1 (stereo partly drawn) [Compound 55, 3-((13S,15R)-3-hydroxy-2-iodo-13-methyl-17-oxo-7,8,9,11,12,13,14,15,16,17-decahydro-6H-cyclopenta[a]phenanthren-15-yl)-N-(5-methylthiazol-2-yl)propanamide] | 98 | 7

From US10377791B2, “Therapeutically active estratrienthiazole derivatives as inhibitors of 17 B-hydroxysteroid dehydrogenase, type 1” (FORENDO PHARMA LTD, priority 2013, dated 2019)
